Data reported in US7645785B2, “Benzimidazole derivatives” (Hoffmann-La Roche Inc., priority 2006, dated 2010).
pEC50, pIC50: −log10 of the molar value.

Columns and labels:
[1] = biological target: T1, FXR-LBD (pFA-FXR-LBD, Gal4 fusion) in BHK21 cells (Homo sapiens, UniProt Q96RI1); test: Luciferase transcriptional reporter gene assay; format: cell-based
T1 sequence (Q96RI1 262-486 limits assumed): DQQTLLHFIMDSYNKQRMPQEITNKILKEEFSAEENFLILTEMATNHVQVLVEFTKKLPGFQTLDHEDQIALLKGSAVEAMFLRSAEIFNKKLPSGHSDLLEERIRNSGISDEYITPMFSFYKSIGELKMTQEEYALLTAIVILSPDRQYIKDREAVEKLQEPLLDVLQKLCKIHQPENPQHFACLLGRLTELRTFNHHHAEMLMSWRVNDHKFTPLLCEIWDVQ
Source text: (§1) Bacterial and mammalian expression vectors were constructed to produce glutathione-s-transferase (GST) and Gal4 DNA binding domain (GAL) proteins fused to the ligand binding domain (LBD) of human FXR (aa 193-473). To accomplish this, the portions of the sequences encoding the FXR LBD were amplified by polymerase chain reaction (PCR) from a full-length clone by PCR and then subcloned into the plasmid vectors. The final clone was verified by DNA sequence analysis.
Luciferase Transcriptional Reporter Gene Assays
Baby hamster kidney cells (BHK21 ATCC CCL10) were grown in DMEM medium containing 10% FBS at 37° C. in a […]:5% CO2 atmosphere. Cells were seeded in 6-well plates at a density of 10^5 cells/well and then transfected with the pFA-FXR-LBD or expression plasmid plus a reporter plasmid. […] Six hours following transfection, the cells were harvested by trypsinization and seeded in 96-well plates at a density of 10^4 cells/well. […] Luminescence, as a measure of luciferase activity, was detected in a Packard TopCount. Transcriptional activation in the presence of a test substance was expressed as fold-change in luminescence compared to that of cells incubated in the absence of the substance. EC50 values were calculated using the XLfit program (ID Business Solutions Ltd. UK).

[2] = biological target: T2, FXR ligand binding domain (GST-FXR LBD fusion protein) (Homo sapiens, UniProt Q96RI1); test: Radioligand binding assay (scintillation proximity, radioligand displacement)
T2 construct: made in house; host or cells: E. coli BL21 (pLysS)
T2 sequence (Q96RI1 193-472 isoform Q96RI1-2 limits assumed): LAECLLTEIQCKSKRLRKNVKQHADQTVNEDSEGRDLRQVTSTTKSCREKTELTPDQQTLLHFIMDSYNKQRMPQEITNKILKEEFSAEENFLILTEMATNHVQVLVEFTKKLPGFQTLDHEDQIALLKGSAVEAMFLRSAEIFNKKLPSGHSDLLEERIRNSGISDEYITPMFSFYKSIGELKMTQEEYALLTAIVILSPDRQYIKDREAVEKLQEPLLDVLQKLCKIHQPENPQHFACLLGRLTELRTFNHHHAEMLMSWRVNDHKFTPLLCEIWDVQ
Procedure: The following tests were carried out in order to determine the activity of the compounds of formula (I). Background information on the binding assay can be found in: Nichols J S et al. “Development of a scintillation proximity assay for peroxisome proliferator-activated receptor gamma ligand binding domain”, (1998) Anal. Biochem. 257: 112-119.
as §1
The induction, expression, and subsequent purification of GST-LBD fusion protein was performed in E. coli strain BL21 (pLysS) cells by standard methods (Current Protocols in Molecular Biology, Wiley Press, ed. Ausubel et al).
Radioligand Binding Assay
Binding of test substances to the FXR ligand binding domain was assessed in a radioligand displacement assay. […] All binding assays were performed in 96-well plates and the amount of bound ligand was measured on a Packard TopCount using OptiPlates (Packard). […]

pEC50 [1]	pIC50 [2]	Compound
6.15	5.82	CC(C)CC(C(=O)NC1CCCCC1)n1c(-c2ccc(Cl)cc2)nc2ccccc21 (stereo not shown) [Example 2, 2-[2-(4-chloro-phenyl)-benzoimidazol-1-yl]-4-methyl-pentanoic acid cyclohexylamide]
7.07	6.30	COc1ccc(-c2nc3ccccc3n2C(C(=O)NCc2ccccc2)C2CCCCC2)c(OC)c1 (stereo not shown) [Example 34, N-benzyl-2-cyclohexyl-2-[2-(2,4-dimethoxy-phenyl)-benzoimidazol-1-yl]-acetamide]
